Data set [1] deals with patient-derived PDA #13590 tumors. Briefly: PDA #13590 study: CBL0137/gemcitabine against patient-derived pancreatic tumor engrafts. The data set is classed as in vivo, SCID mice. An excerpt:
(§1) Seventy and sixty female athymic nude mice were obtained for each H1975 Non-Small Cell Lung Cancer Xenograft study and split into treatment groups consisting of 10 animals per group (2 cages of 5 mice per cage).
(§2) Preparation and subcutaneous implantation of tumor pieces: HepG2 tumors (passage 2 for HepG2 study and passage 1 for HepG2 (sub-dose CLB0137) study) or Hep3B tumors (passage 1 for Hep3B study and passage 9 for Hep3B (sub-dose CLB0137) study) were propagated in athymic nude mice and harvested from euthanized mice when they reached ˜500-900 mm^3. PDA tumors (passage 6) were propagated in SCID mice (both flanks) and harvested from euthanized mice when they reached ˜600-700 mm^3 in size. Harvested tumors were transferred to a sterile Petri dish containing RPMI-10% FBS medium or D-PBS plus penicillin/streptomycin. Enough media was added to bathe the tumor in order to ensure the viability of the transplant material. Tumors were dissected into 2 mm×2 mm cubes using a sterile scalpel. Care was taken to make the pieces as uniform in size and shape as possible. Tumor pieces were implanted into recipient mice immediately after being prepared.
(§3) Tumor Size Measurements: Tumor size was measured by digital caliper in two dimensions (in mm): maximum length (l) and maximum width (w) taken perpendicular to one another. The measurements were used to calculate tumor volume according to the formula: tumor volume=(l×w2)/2 (w<l). The value obtained by this formula is also equal to the mass of the tumor in mg. Starting 2 days after tumor implantation, tumor measurements were made every 2-3 days prior to treatment initiation and then twice per week (e.g., on Day 1 (D1, the day of treatment initiation), D4, D8, D11, D15, D18, D22, D25, D29, D32, D36, D39, D43, D46, D50, D53 and D57). Tumor measurements were collected more frequently when tumor size approached the tumor size endpoint in order to prevent passing the endpoint between scheduled measurements.
(§4) Administration of test and control articles: Mice were administered the designated solutions when the mean tumor volume per treatment group was ˜45-200 mm^3.
The volume of dosing solution administered ip or iv was 8 ml/kg mouse body weight. Intravenous injections were performed via the tail vein. Administration of drugs was done slowly without force on the syringe.
Monitoring and Sample Collection: Twice daily, mice were monitored for mortality and morbidity for the duration of the experiment. […] All abnormal observations were documented and semi-quantitative scores were assigned for “body condition,” “posture,” and “activity.” Scores of 4, 3, 2, and 1 were assigned to normal conditions (4), and slightly (3), moderately (2) and severely (1) abnormal conditions, respectively. Cages were taken to a laminar flow hood and opened in order to clearly assess mouse activity.
Data analysis: For all study groups, maximum tumor growth inhibition was calculated for Day 11, 13, or 15 (Day X). […] For each tumor, relative tumor size was calculated relative to its size on Day 1 when treatment was initiated (i.e., fold tumor growth). To calculate the maximum tumor growth inhibition for each tumor, the following equation was used: 100−(fold tumor growth drug-treated Day X/mean fold tumor growth vehicle-treated Day X)*100. Differences in tumor sizes between groups were determined using ANOVA analysis (GraphPad Prism 5 Software) where “*” refers to P=0.01-0.05 (significant), “**” refers to P=0.001-0.01 (very significant) and “***” refers to P<0.001 (extremely significant), Differences that were not statistically significant are indicated with “ns”. […] Tumor growth delay (T−C) was calculated by subtracting the median time for the control to reach the 1000 mm^3 size endpoint from that of the median time for the treated groups to reach the size endpoint.

Data set [2] has as its system patient-derived PDA #13756 tumors. Briefly: PDA #13756 study: CBL0137/gemcitabine against patient-derived pancreatic tumor engrafts. The data set is classed as in vivo, SCID mice.
Description: as §1, §2, §3, §4
The volume of dosing solution administered ip or iv was 8 ml/kg mouse body weight. Intravenous injections were performed via the tail vein. […]
Monitoring and Sample Collection: Twice daily, mice were monitored for mortality and morbidity for the duration of the experiment. […] All abnormal observations were documented and semi-quantitative scores were assigned for “body condition,” “posture,” and “activity.” Scores of 4, 3, 2, and 1 were assigned to normal conditions (4), and slightly (3), moderately (2) and severely (1) abnormal conditions, respectively. […]
Data analysis: For all study groups, maximum tumor growth inhibition was calculated for Day 11, 13, or 15 (Day X). […] For each tumor, relative tumor size was calculated relative to its size on Day 1 when treatment was initiated (i.e., fold tumor growth). […] Differences in tumor sizes between groups were determined using ANOVA analysis (GraphPad Prism 5 Software) where “*” refers to P=0.01-0.05 (significant), “**” refers to P=0.001-0.01 (very significant) and “***” refers to P<0.001 (extremely significant), Differences that were not statistically significant are indicated with “ns”. […] Tumor growth delay (T−C) was calculated by subtracting the median time for the control to reach the 1000 mm^3 size endpoint from that of the median time for the treated groups to reach the size endpoint.

A further data set deals with A549. Briefly: A549 engraft experiment. The data set is classed as in vivo. The following applies: one engraft experiment.
In another data set the test system is H1975 NSCLC tumors. As for the experimental part:
as §1
Description of H1975 NSCLS test material: Human H1975 NSCLC cell line (originally from ATCC) suspension was mixed 1:1 with Matrigel at 5×10^7 cells/ml (5×10^6 cells delivered per 100 μl injection) and kept on ice until inoculation.
For the NSCLC studies, solutions were prepared in two lots (once per 2 weeks) to ensure that fresh solutions were used throughout the study.
Preparation and inoculation of tumor cells: The night before inoculation, the Matrigel was placed on ice in the refrigerator to thaw. Prior to the start of cell harvesting, a supply of pipettes, tubes and tips were placed into the freezer so that they were cold when it was time to work with the Matrigel. One ml syringes and ½″ 23 G needles were also pre-chilled. This step was necessary to prevent premature solidification of Matrigel, which becomes solid at room temperature or higher (i.e., 37° C.).
H1975 cell suspension was prepared immediately before tumor inoculation in PBS. H1975 cells at passage 16 were harvested from forty 150 mm diameter dishes and diluted to 10×10^7 cells/ml in PBS (5.87 ml). Just prior to inoculation, using pre-chilled tips and tubes, 4.5 ml of this cell suspension was mixed with an equal volume of Matrigel (1:1) to a total volume of 9 mL Cell suspensions were kept on ice. The final concentration of cells was […].
Prior to inoculation of mice, the tumor cell-Matrigel mixture was carefully mixed by inverting the tube several times. A pre-chilled 1 nil syringe was filled with tumor cell-Matrigel mixture and then a pre-chilled ½″ 23 G capped needle was attached to the end of syringe to perform the injection. The closed filled syringe was inverted several times and then 100 μl of the cell-Matrigel mixture was inoculated subcutaneously into the left flank of each mouse.
For inoculation, mice were anesthetized with isoflurane (3-4% induction in 100% O2, 1-2% maintenance) to aid in proper subcutaneous inoculation.
as §3, §4
For all groups, Q4 d dosing was performed on D1, 05, 09, 013, 017, 021, 025, and 029 of the study. For groups that received only one drug rather than both, the vehicle for the drug that was not given was administered in its place as a mock administration. The volume of dosing solution administered ip or iv was 8 ml/kg mouse body weight. Intravenous injections were performed via the tail vein. Administration of drugs was done slowly without force on the syringe.
Monitoring and Sample Collection: Twice daily, mice were monitored for mortality and morbidity for the duration of the experiment. […] All abnormal observations were documented and semi-quantitative scores were assigned for “body condition,” “posture,” and “activity.” Scores of 4, 3, 2, and 1 were assigned to normal conditions (4), and slightly (3), moderately (2) and severely (1) abnormal conditions, respectively.

Like-named read-outs stand apart in the source and are kept apart here.

With `Nc1ccn([C@@H]2O[C@H](CO)[C@@H](O)C2(F)F)c(=O)n1` [gemcitabine], the “individual tumors showing regression or disappeared” value in data set [1] (Day 29, vehicle 1/9) is on record as 6/6. In addition, the “mean fold tumor growth” value in data set [1] (Day 57) turned out to be 7.91±2.7 fold; in data set [1] (Day 71), 12.98±3.9 fold; in data set [2] (Day 15, gemcitabine 40 mg/kg ip Q4d, CBL0137 80 mg/kg iv 1×/wk, 4 weeks), 0.55 fold; in data set [2] (Day 54), 26.7 fold; in the data set on H1975 NSCLC tumors (Day 15, vehicle 8.52-fold) it was 0.958 fold; with H1975 NSCLC tumors (Day 22, CBL0137 70 mg/kg iv Q4d, gemcitabine 40 mg/kg ip Q4d, vehicle 15.2), 2.7 fold. Moreover, the “mean fold tumor growth” value in the data set with H1975 NSCLC tumors (Day 39) stood at 3.66 fold. Also, the “animals surviving to the end of the study” value in data set [1] (Day 88, vehicle 0/5) is listed as “¼”. Besides, in data set [1] (PDA #13590), the “antitumor efficacy (in words)” value is listed as “effective against PDA #13590 tumor growth as single agents”. The “median survival time (MST)” value in data set [1] (vehicle 46 days, study end Day 88) was determined as 76.5 days; in the data set on H1975 NSCLC tumors (vehicle 16 days), 48.5 days; in the data set with H1975 NSCLC tumors (vehicle 22 days) it was 51.5 days. Moreover, the “tumor growth (in words)” value in data set [2] (Day 29) is given as “regression of all tumors”. In addition, in data set [2] (by Day 15), the “individual tumors regressed or disappeared” value was 8/10. For the same compound, the animal survival time in data set [2] (gemcitabine 40 mg/kg ip Q4d, CBL0137 80 mg/kg iv 1×/wk) came out at 54 days. Also, in the data set with A549, the “response of A549 in engraft experiment (in words)” value is given as “resistant to gemcitabine”. For the same compound, in the data set with H1975 NSCLC tumors (2000 mm^3 size endpoint, vehicle 15.6 days), the “median time to reach endpoint” value is listed as 47.8 days. For the same compound, the “individual tumors smaller than at start of treatment on Day 1” value in the data set with H1975 NSCLC tumors (Day 5, vehicle 1/9) was 9/10. Moreover, the results for the tumor growth inhibition in the data set with H1975 NSCLC tumors (Day 15) and in the data set on H1975 NSCLC tumors (Day 22) were 88.8% and 82.6%, respectively. Moreover, the “delay in tumor growth (relative to vehicle treatment)” value in the data set on H1975 NSCLC tumors (mouse, in vivo) is recorded as 32.2 days. Moreover, the signs of morbidity result in the data set on H1975 NSCLC tumors (mouse, in vivo) is “no signs of morbidity”. Also, the “toxicity, cage-side observations” value with H1975 NSCLC tumors (mouse, in vivo) was “None of the cage-side observations were indicative of any toxicity”.

For the origin of these results see patent US10434086B2, “Combination therapies with curaxins” (Incuron, Inc., priority 2014, dated 2019).
